Results: EP0528458A1, “Method for controlling dental tartar using phosphopeptides and compositions for use therein” (UNILEVER N.V., priority 1991, dated 1993)
Like-named read-outs stand apart in the source and are kept apart here.

Assays:
[1] = test system: Streptococcus sobrinus 6715-14; details: 1.5% pyrophosphate anion; versus deionized water control
Experimental: A Microbial Mineralization Assay was carried out. Standard glass rods (3mm x 50mm) were attached to a circular piece of rubber and attached to a vial cap. The surface of the rods was etched. The rods were placed in a growth medium containing sucrose and Streptococcus sobrinus 6715-14. The microbe was grown on the rods for 24 hours at 37°C. The rods were then placed into a fresh growth medium for another 24 hours at 37°C. The rods were then taken out and treated with the anti-tartar agent to be tested. Treatment with only deionized water was used as control. The rods were then placed in a calcifying solution made up of a calcium and phosphate at levels of 1.5 mM and 5.0 mM respectively, at pH 7.4, supplemented with human saliva (about 25%). Six hours later, the treatment with the anti-tartar agent was repeated, and glass rods were placed in a calcifying solution. The procedure was continued for the next three days.
The rods were then removed from the calcifying solution, rinsed with water and placed in 0.6 N HCl solution. The solution containing the rods was heated at 60°C for 2 hours to dissolve calcified salts. The resulting acidic solution was filtered over 0.8 µm nylon membrane. The level of mineral formation was assessed via calcium and phosphorus analysis. The results were calculated by comparing the % reduction of mineral formation to that of the control.

[2] = no Na CPP
Experimental: Comparative in vitro experiments were carried out using a Seeded Crystal Growth Inhibition Assay. This assay involved the treatment of synthetic hydroxyapatite with the anti-tartar agent to be tested. The hydroxyapatite, treated with the anti-tartar agent was incubated at 37°C in a calcifying solution made up of calcium and phosphate at 1.5 mM and 4.5 mM respectively, pH 7.4. The samples were filtered to remove any calcium phosphate crystals and the free calcium in the filtrate was measured using Atomic Absorption Spectroscopy. The percent inhibition was calculated as follows: [formula]
The % inhibition is a measure of the degree of inhibition of calcium phosphate precipitation by the anti-tartar agent. The anti-tartar agents tested were: 1) tetrasodium pyrophosphate, Na₄P₂O₇ and 2) combinations of Na₄P₂O₇ and sodium caseinphosphopeptide, Na CPP, prepared as described above, which is a mixture rich in phosphopeptides of SEQ ID NO:1 and SEQ ID NO:2.
Experiments were carried out using a Seeded Crystal Growth Inhibition Assay described in Example 1. % inhibition was measured for NaCPP/Zinc sulphate mixtures.

Compound | % reduction of mineral formation [1] | % Inhibition ([2]; Na4 P2 O7 0.1 mM) | % Inhibition ([2]; Na4 P2 O7 0.15 mM) | % Inhibition ([2]; Na4 P2 O7 0.2 mM)
O=P(O)(O)OP(=O)(O)O [pyrophosphate anion] | 32% | – | – | –
O=P([O-])([O-])OP(=O)([O-])[O-].[Na+].[Na+].[Na+].[Na+] [Na4 P2 O7, tetrasodium pyrophosphate] | – | 14% | 24% | 54%
